The record followed here is US20130303518A1, “Methods of Inhibiting the Catalytic Activity of a Protein Kinase and of Treating a Protein Kinase Related Disorder” (JIANGSU HANSOH PHARMACEUTICAL CO., LTD., priority 2007, published 2013).

The target of data set [1] is T1, recombinant human VEGF-R2 (Homo sapiens, UniProt P35968).
T1 construct: purchased Cell signaling technology #7787
In words: VEGFR-2 kinase assay (ELISA, time-resolved fluorescence). It is filed as biochemical. The settings on record: recombinant human VEGF-R2, 10 μM ATP, 25° C., 30 minutes; read-out: IC50 (VEGFR-2/bio). The procedure: This assay is used to measure the in vitro kinase activity of recombinant human VEGF-R2 in an ELISA assay.
• a. […] Stop Buffer: 50 mM EDTA, pH 8.0. • d.
The following protocol was used: • 1. The test compound was diluted with DMSO to the desired final assay concentration. […] 6 μM substrate peptide (Tyr87) was diluted with dH2O (1:1), 15 μl was added to every assay. • 3. VEGFR-2 enzyme was immediately transferred from −80° C. to ice, and the enzyme was allowed to thaw on ice. • 4. 2.2 μg VEGFR-2 enzyme was taken to the enzyme tube. • 5. […] 0.75 ml of DTT/Kinase buffer was transferred to each enzyme tube to prepare 4× reaction cocktail, and 7.5 μl 4× reaction cocktail was added to every assay. • 7. […] The reaction tube was incubated at 25° C. for 30 minutes. • 9. 30 μl/assay stop buffer (50 mM EDTA, pH 8.0) was added to stop the reaction. • 10. 25 μl of each reaction and 75 μl dH2O/well was transferred to a 96-well streptavidin coated plate, with shaking at room temperature for 60 minutes. • 11. Each well was washed three times with 200 μl PBS-T buffer. Plate was patted on paper towel to remove excess liquid. • 12. […] The reaction tube was incubated, with shaking at room temperature for 60 minutes. • 14. Washing was carried out as described above in step 11. • 15. Europium labeled anti-mouse IgG was diluted 1:500 in PBS-T buffer with 1% BSA, 100 μl diluted antibody was added to each well. • 16. The reaction tube was incubated, with shaking at room temperature for 30 minutes. • 17. Each well was washed five times with 200 μl PBS-T buffer. Plate was patted on paper towel to remove excess liquid. • 18. 100 μl/well DELFIA® Enhancement Solution was added. • 19. The reaction tube was incubated, with shaking at room temperature for 5 minutes. • 20.
The IC50 value can be derived from the IRs of compounds at different concentration gradients.
On the technique in general: An ELISA detects its analyte on a solid surface through an enzyme-linked reagent.

The test system of a further data set is HUVEC cell. Nature of the data set: Inhibition of cell proliferation assay (SRB) on VEGFR high expressing HUVEC cells. Conditions: Homo sapiens, 72 h, read-out: IC50 (VEGFR/HUVEC).
For another data set, the system named is HT-29 human colon cancer. Nature of the data set: Therapeutic effects against xenografts of HT-29 human colon cancer in nude mice. It is filed as in vivo. How it is done:
The therapeutic effects of Example 63 against xenografts of HT-29 human colon cancer in nude mice were estimated.
The therapeutic effects of the compound of Example 63 against xenografts of HT-29 human colon cancer in nude mice were estimated.
Preparation method: the compound of Example 63 was prepared to corresponding concentration with distilled water.
Six to seven-week-old BALB/cA-nude female mice was purchased from Slaccas Experimental Animal. Certificate No.: SCXK(Shanghai) 2003˜0003. Raising Conditions: SPF level.
Nude mice were hypodermic inoculated HT-29 human colon cancer cell. After tumors grew to 100-300 mm^3, mice were randomly divided into teams (d0). The volume of tumors and weigh of the mice were measured for 2-3 times per week. The calculation formula of the volume of tumor (V) is: V=½×a×b^2, a: length of tumor, b: width of tumor.

Molecules are shown by their SMILES. Entries after “also recorded” stand apart in the source; their conditions may differ. Marks after values point to notes of the source that are not given here.

T1 sequence (P35968 20-1356): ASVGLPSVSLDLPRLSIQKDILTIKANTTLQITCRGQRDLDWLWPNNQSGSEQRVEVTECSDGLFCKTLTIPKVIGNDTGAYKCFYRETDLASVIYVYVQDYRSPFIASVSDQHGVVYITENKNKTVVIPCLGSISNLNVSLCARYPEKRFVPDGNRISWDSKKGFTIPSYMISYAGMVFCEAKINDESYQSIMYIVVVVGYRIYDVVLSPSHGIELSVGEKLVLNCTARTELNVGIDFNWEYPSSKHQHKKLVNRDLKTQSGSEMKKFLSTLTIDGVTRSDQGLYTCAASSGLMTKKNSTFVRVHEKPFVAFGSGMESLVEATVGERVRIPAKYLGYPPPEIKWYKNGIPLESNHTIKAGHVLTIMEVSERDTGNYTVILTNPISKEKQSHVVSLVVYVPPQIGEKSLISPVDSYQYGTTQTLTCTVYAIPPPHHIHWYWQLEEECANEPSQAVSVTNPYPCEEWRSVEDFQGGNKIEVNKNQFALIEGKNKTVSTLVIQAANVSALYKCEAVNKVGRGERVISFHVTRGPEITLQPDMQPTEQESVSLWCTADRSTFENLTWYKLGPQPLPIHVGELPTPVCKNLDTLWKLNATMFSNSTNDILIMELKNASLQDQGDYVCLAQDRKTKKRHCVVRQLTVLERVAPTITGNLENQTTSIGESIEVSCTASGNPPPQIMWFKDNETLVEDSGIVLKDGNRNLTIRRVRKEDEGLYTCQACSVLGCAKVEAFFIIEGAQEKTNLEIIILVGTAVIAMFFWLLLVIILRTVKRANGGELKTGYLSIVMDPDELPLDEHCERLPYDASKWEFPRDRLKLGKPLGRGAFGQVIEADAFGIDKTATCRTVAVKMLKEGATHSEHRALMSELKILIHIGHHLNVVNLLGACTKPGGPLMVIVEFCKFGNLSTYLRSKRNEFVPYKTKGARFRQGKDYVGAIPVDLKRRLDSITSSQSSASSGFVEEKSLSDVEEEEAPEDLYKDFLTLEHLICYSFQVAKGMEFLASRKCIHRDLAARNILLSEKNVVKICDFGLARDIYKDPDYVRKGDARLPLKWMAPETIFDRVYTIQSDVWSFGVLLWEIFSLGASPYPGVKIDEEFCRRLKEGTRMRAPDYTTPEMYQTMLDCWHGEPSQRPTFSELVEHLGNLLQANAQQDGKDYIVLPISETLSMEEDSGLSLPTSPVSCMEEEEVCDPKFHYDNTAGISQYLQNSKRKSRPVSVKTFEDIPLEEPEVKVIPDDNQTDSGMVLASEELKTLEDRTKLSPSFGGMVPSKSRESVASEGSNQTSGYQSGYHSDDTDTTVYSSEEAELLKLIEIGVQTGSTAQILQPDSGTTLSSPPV
Method for HUVEC cell: The following in vitro assay may be used to determine the level of activity and effect of different compounds of the present invention on the proliferation inhibition (cell toxic) of endothelium growth factor receptor (VEGFR) high expressing Homo sapiens cancer cell-HUVEC cell.
Then the cells are put back to the incubator and cultured for continuous 72 hours. 72 hours later, the cell exposed to compounds and control cell are assayed for their proliferation using Sulforhodamine B (SRB) method.
HUVEC cells were grown in growth media (DMEM/F12, supplemented with 10% FBS) in 100 mm corning culture plates till confluence at 37° C., 5% CO2. • 2. HUVEC cells were washed in 100 mm plates with FBS, then the cells were harvested by trypsinization and seeded to corning 96-well cell culture plates at concentration of 50000 cells/ml, leaving 6 wells/each plate empty as background. • 3. […] The compounds stock solution was prepared, using DMSO to solve candidate compounds to a concentration of 20 mM. Then DMSO was used to dilute the stock solution to a serious concentration of tested compounds solution (namely, 2 mM, 1 mM, 0.2 mM, 20 μM, 2 μM, 0.2 μM). • 5. […] Each DMSO serial concentration compound solution was diluted by 20 times with culture medium by adding 5 μl DMSO compound solution to 95 μl culture medium, then mixed well by vortex. This promised that the DMSO concentration at that the HUVEC cell will exposed to will not surpass 0.5%. • 6. […] Each well was added 180 μl medium, then 20 μl medium solution of tested compounds prepared at step 5 was added to each well. For negative control group cell, 20 μl culture medium containing 0.5% pure DMSO was added. So, HUVEC cells were exposed to each tested compound at a serial final concentration of 100 μM, 10 μM, 5 μM, 1 μM, 0.1 μM, 0.01 μM, and 0.001 μM. • 7. The culture plates were put back to incubator, and cultured for 72 hours at 37° C., 5% CO2. • 8. 72 hours later, cultures were removed from incubator into sterile work area. • 9. The fixative (50% Trichloroacetic Acid-TCA) was prepared by adding reagent grade water to the TCA, fixing the cells by gently layering 50 μl of cold TCA solution on top of the growth medium. • 10. The plates was incubated for 1 hour at 4° C. and then rinsed with water several times to remove TCA, serum proteins, etc. Plates were air dried and stored until use. Bland background optical density was measured in wells incubated with growth medium without cells. • 11. 0.4% Sulforhodamine B solution was prepared by using 10% acetic acid solution. 50 μl sulforhodamine B solution was added to each well of 96-well plates. • 12. The cells were allowed to stain for 30 minutes. • 13. The wash solution of 10% acetic acid was prepared. At the end of the staining period, the stain was removed and the cells were rinsed quickly with 1% acetic acid. Repeat until unincorporated dye was removed. Wash times were kept to a minimum to reduce desorption of protein-bound dye. After being rinsed, the cultures were air dried. • 14. […] Then cultures were allowed to stand for 5 minutes at room temperature, and the mixing of the dye was enhanced by gentle stirring in a gyratory shaker. • 15. The absorbance was measured by spectrophotometry at a wavelength of 565 nm. The background absorbance of 96-well plates at 690 nm was measured and subtracted from the measurement at 565 nm. • 16. The inhibition rate (IR) was calculated as follows:

As for `CCN(CC)CCN1CCCc2[nH]c(/C=C3\C(=O)Nc4cc(NC(=O)[C@H](C)O)c(F)cc43)c(C)c2C1=O` [Example 8, (S,Z)—N-{3-[5-(2-Diethylamino-ethyl)-3-methyl-4-oxo-1,4,5,6,7,8-hexahydro-pyrrolo[3,2-c]azepin-2-ylmethylene]-5-fluoro-2-oxo-2,3-dihydro-1H-indol-6-yl}-2-hydroxy-propionamide], the figures for the IC50 (in data set [1]; in the data set on HUVEC cell) were 115 nM and 308 nM, respectively.

With `CCN(CC)CCN1CCCc2[nH]c(/C=C3\C(=O)Nc4cc(NCc5ccc(F)cc5)c(F)cc43)c(C)c2C1=O` [Example 3, (Z)-5-(2-Diethylamino-ethyl)-2-[5-fluoro-6-(4-fluoro-benzylamino)-2-oxo-1,2-dihydro-indol-3-ylidenemethyl]-3-methyl-5,6,7,8-tetrahydro-1H-pyrrolo[3,2-c]azepin-4-one], the figures for the IC50 (in data set [1]; in the data set on HUVEC cell) were 280 nM and 100 nM, respectively.

On to `CCN(CC)CCN1CCCc2[nH]c(/C=C3\C(=O)Nc4cc(OC)ccc43)c(C)c2C1=O` [Example 15, (Z)-5-(2-Diethylamino-ethyl)-2-(6-methoxy-2-oxo-1,2-dihydro-indol-3-ylidenemethyl)-3-methyl-5,6,7,8-tetrahydro-1H-pyrrolo[3,2-c]azepin-4-one], for which the IC50 in data set [1] came to 2 nM; in the data set with HUVEC cell, 1200 nM.

As for `CCN(CC)CCN1CCCc2[nH]c(/C=C3\C(=O)Nc4cccc(Br)c43)c(C)c2C1=O` [Example 13, (Z)-2-(4-Bromo-2-oxo-1,2-dihydro-indol-3-ylidenemethyl)-5-(2-diethylamino-ethyl)-3-methyl-5,6,7,8-tetrahydro-1H-pyrrolo[3,2-c]azepin-4-one], the IC50 turned out to be 3 nM in data set [1] and 804 nM with HUVEC cell.

`CCN(CC)CCN1CCCc2[nH]c(/C=C3\C(=O)Nc4ncc(Br)cc43)c(C)c2C1=O` [Example 14]: the IC50 came to 4 nM in data set [1] and 457 nM with HUVEC cell.

Turning to `Cc1c(/C=C2\C(=O)Nc3cccc(-c4cccc(F)c4F)c32)[nH]c2c1C(=O)N(CCN1CCOCC1)CCC2` [Example 12, (Z)-2-[4-(2,3-Difluoro-phenyl)-2-oxo-1,2-dihydro-indol-3-ylidenemethyl]-3-methyl-5-(2-morpholin-4-yl-ethyl)-5,6,7,8-tetrahydro-1H-pyrrolo[3,2-c]azepin-4-one], the figures for the IC50 (in data set [1]; with HUVEC cell) were 1 nM and 300 nM, respectively.

In the case of `CCN(CC)CCN1CCCc2[nH]c(/C=C3\C(=O)Nc4cccc(C)c43)c(C)c2C1=O` [Example 16, (Z)-5-(2-Diethylamino-ethyl)-3-methyl-2-(4-methyl-2-oxo-1,2-dihydro-indol-3-ylidenemethyl)-5,6,7,8-tetrahydro-1H-pyrrolo[3,2-c]azepin-4-one], the IC50 was found to be 1.3 nM in data set [1] and 210 nM in the data set on HUVEC cell.

As for `CCN(CC)CCN1CCCc2[nH]c(/C=C3\C(=O)Nc4ccc(Cl)cc43)c(C)c2C1=O` [Example 2], the figures for the IC50 (in data set [1]; with HUVEC cell) were 21 nM and 288 nM, respectively.

As to `Cc1c(/C=C2\C(=O)Nc3cc(NC(=O)[C@H](C)O)c(F)cc32)[nH]c2c1C(=O)N(CCN1CCOCC1)CCC2` [Example 21, (S,Z)—N-{5-Fluoro-3-[3-methyl-5-(2-morpholin-4-yl-ethyl)-4-oxo-1,4,5,6,7,8-hexahydro-pyrrolo[3,2-c]azepin-2-ylmethylene]-2-oxo-2,3-dihydro-1H-indol-6-yl}-2-hydroxy-propionamide], the IC50 in data set [1] came to 160 nM.

With `CCN(CC)CCN1CCCc2[nH]c(/C=C3\C(=O)Nc4ccc(F)cc43)c(C)c2C1=O` [Example 63, malate], in the data set on HT-29 human colon cancer (40 mg/kg p.o d0~12, P < 0.01 vs control), the “T/C (%)” value is given as 31.5* %. For the same compound, the “RTV (relative tumor volume)” value in the data set with HT-29 human colon cancer (X ± SD, 40 mg/kg p.o d0~12, dn vs d0) stood at 0.80 ± 0.42. Besides, the “TV (volume of tumor) dn” value in the data set on HT-29 human colon cancer (X ± SD, 40 mg/kg p.o d0~12, dn: the 13th day after the first dosage) was found to be 300 ± 154 mm^3. Further, the “tolerance of mice to the compound (in words)” value in the data set on HT-29 human colon cancer (continuous oral dosing, nude mice, malate) is “well tolerant; also recorded: well tolerant to the compound without obvious toxicity”.

Regarding `CCN(CC)CCN1CCCc2[nH]c(/C=C3\C(=O)Nc4cc(NC(=O)C(C)(C)O)c(F)cc43)c(C)c2C1=O` [Example 9, (Z)—N-{3-[5-(2-Diethylamino-ethyl)-3-methyl-4-oxo-1,4,5,6,7,8-hexahydro-pyrrolo[3,2-c]azepin-2-ylmethylene]-5-fluoro-2-oxo-2,3-dihydro-1H-indol-6-yl}-2-hydroxy-2-methyl-propionamide], the IC50 worked out at 490 nM in data set [1] and 68 nM with HUVEC cell.

Consider `Cc1c(/C=C2\C(=O)Nc3cc(NCc4ccc(F)cc4)c(F)cc32)[nH]c2c1C(=O)N(CCN1CCOCC1)CCC2` [Example 19, (Z)-2-[5-Fluoro-6-(4-fluoro-benzylamino)-2-oxo-1,2-dihydro-indol-3-ylidenemethyl]-3-methyl-5-(2-morpholin-4-yl-ethyl)-5,6,7,8-tetrahydro-1H-pyrrolo[3,2-c]azepin-4-one], for which the results for the IC50 (in data set [1]; with HUVEC cell) were 12 nM and 146 nM, respectively.

Consider `CCN(CC)CCN1CCCc2[nH]c(/C=C3\C(=O)Nc4cccc(CCO)c43)c(C)c2C1=O` [Example 17, (Z)-5-(2-Diethylamino-ethyl)-2-[4-(2-hydroxy-ethyl)-2-oxo-1,2-dihydro-indol-3-ylidenemethyl]-3-methyl-5,6,7,8-tetrahydro-1H-pyrrolo[3,2-c]azepin-4-one], for which the IC50 in data set [1] stood at 1 nM; in the data set with HUVEC cell it was 129 nM.

In the case of `CCN(CC)CCN1CCCc2[nH]c(/C=C3\C(=O)Nc4cc(NC(=O)COC)c(F)cc43)c(C)c2C1=O` [Example 7, (Z)—N-{3-[5-(2-Diethylamino-ethyl)-3-methyl-4-oxo-1,4,5,6,7,8-hexahydro-pyrrolo[3,2-c]azepin-2-ylmethylene]-5-fluoro-2-oxo-2,3-dihydro-1H-indol-6-yl}-2-methoxy-acetamide], in data set [1], the IC50 was determined as 690 nM.

As to `CCN(CC)CCN1CCCc2[nH]c(/C=C3\C(=O)Nc4ccc(Br)cc43)c(C)c2C1=O` [Example 5], the IC50 in data set [1] is 8.5 nM; with HUVEC cell, 100 nM.

Consider `CCN(CC)CCN1CCCc2[nH]c(/C=C3\C(=O)Nc4cccc(-c5cccc(F)c5F)c43)c(C)c2C1=O` [Example 6, (Z)-5-(2-Diethylamino-ethyl)-2-[4-(2,3-difluoro-phenyl)-2-oxo-1,2-dihydro-indol-3-ylidenemethyl]-3-methyl-5,6,7,8-tetrahydro-1H-pyrrolo[3,2-c]azepin-4-one], for which the values for the IC50 (in data set [1]; in the data set with HUVEC cell) were 23 nM and 280 nM, respectively.

As for `Cc1c(/C=C2\C(=O)Nc3c(NC=O)cc(F)cc32)[nH]c2c1C(=O)N(CCN1CCOCC1)CCC2` [Example 20, (Z)—N-{5-Fluoro-3-[3-methyl-5-(2-morpholin-4-yl-ethyl)-4-oxo-1,4,5,6,7,8-hexahydro-pyrrolo[3,2-c]azepin-2-ylmethylene]-2-oxo-2,3-dihydro-1H-indol-7-yl}-formamide], in data set [1], the IC50 came to 72 nM.

For `Cc1c(/C=C2\C(=O)Nc3ccc(Cl)cc32)[nH]c2c1C(=O)N(CCN1CCOCC1)CCC2` [Example 10], the IC50 in data set [1] worked out at 14 nM; with HUVEC cell, 123 nM.

Consider `CCN(CC)CCN1CCCc2[nH]c(/C=C3\C(=O)Nc4c(Br)cc(F)cc43)c(C)c2C1=O` [Example 4, (Z)-2-(7-Bromo-5-fluoro-2-oxo-1,2-dihydro-indol-3-ylidenemethyl)-5-(2-diethylamino-ethyl)-3-methyl-5,6,7,8-tetrahydro-1H-pyrrolo[3,2-c]azepin-4-one], for which the IC50 in data set [1] turned out to be 41 nM; in the data set with HUVEC cell, 404 nM.

Regarding `COCC(=O)Nc1cc2c(cc1F)/C(=C/c1[nH]c3c(c1C)C(=O)N(CCN1CCOCC1)CCC3)C(=O)N2` [Example 18, (Z)—N-{5-Fluoro-3-[3-methyl-5-(2-morpholin-4-yl-ethyl)-4-oxo-1,4,5,6,7,8-hexahydro-pyrrolo[3,2-c]azepin-2-ylmethylene]-2-oxo-2,3-dihydro-1H-indol-6-yl}-2-methoxy-acetamide], in data set [1], the IC50 stood at 10 nM.
